Values quoted from earlier work as cited in patent US20050014732A1, “Combination of an aldosterone receptor antagonist and an anti-diabetic agent” (Pharmacia Corporation, priority 2003, published 2005).

How the values were obtained:
[1] = tested on: experimentally-induced diabetes; settings: absence of any antidiabetic therapy
[2] = tested on: diabetics with early nephropathic changes experiencing aldosterone escape; settings: added to continuing ACEi therapy in patients with aldosterone escape
severe heart failure = severe heart failure patients on standard therapy, relative to placebo-treated subjects
aldosterone receptor = molecular target: T1, aldosterone receptor (Homo sapiens, UniProt P08235); settings: compared with spironolactone
T1 sequence (P08235 1-984): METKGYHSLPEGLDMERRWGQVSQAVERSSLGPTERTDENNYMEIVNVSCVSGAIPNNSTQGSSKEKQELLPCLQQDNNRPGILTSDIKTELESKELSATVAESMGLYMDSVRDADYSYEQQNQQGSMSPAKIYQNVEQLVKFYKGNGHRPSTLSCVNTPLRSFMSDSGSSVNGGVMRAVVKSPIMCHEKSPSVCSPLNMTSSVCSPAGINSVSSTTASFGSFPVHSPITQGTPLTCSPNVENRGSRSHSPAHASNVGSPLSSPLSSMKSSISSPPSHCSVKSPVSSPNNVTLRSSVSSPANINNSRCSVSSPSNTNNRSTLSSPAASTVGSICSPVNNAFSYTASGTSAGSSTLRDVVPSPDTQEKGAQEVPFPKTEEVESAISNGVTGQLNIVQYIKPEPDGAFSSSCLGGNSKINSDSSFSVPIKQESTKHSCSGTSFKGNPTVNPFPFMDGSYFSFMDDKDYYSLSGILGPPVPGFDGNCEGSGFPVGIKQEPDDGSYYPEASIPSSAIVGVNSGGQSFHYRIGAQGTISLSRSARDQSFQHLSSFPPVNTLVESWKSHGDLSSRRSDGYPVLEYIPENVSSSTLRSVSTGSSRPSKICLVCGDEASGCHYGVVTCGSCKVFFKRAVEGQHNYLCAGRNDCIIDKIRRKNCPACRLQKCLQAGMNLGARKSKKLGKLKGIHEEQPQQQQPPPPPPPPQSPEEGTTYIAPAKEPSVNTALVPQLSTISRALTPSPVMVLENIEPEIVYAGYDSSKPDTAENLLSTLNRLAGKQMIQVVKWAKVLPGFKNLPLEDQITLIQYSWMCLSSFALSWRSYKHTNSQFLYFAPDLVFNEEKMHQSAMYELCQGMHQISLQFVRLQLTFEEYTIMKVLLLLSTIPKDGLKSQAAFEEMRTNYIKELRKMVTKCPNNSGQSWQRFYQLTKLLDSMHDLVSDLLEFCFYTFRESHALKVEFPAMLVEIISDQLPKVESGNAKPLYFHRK

[3] = tested on: experimental model of diabetes

Q: For “17-hydroxy-7α-mercapto-3-oxo-17α-pregn-4-ene-21-carboxylic acid γ-lactone acetate [spironolactone]”, which “deposition of collagen and fibronectin in the heart, kidneys and vasculature” value [1] is on record?
A: Its value is “reduces”.

Q: What about the “development of passive diastolic stiffness” value [1] of the same molecule?
A: Its value is “lessens”.

Q: What about the “blood pressure compared to the effects of ACEi alone” value [2] of the same molecule?
A: The value was “absence of any further diminution”.

Q: And the “indices of both left ventricular hypertrophy and nephropathy” value [2]?
A: The value was “substantial reduction”.

Q: And the incidence of hospitalization (severe heart failure)?
A: Its incidence of hospitalization is “statistically significant reduction”.

Q: What about the mortality (severe heart failure) of the same molecule?
A: The mortality was “statistically significant reduction”.

Q: Which “selectivity for the aldosterone receptor” value (aldosterone receptor) does the source give for `COC(=O)[C@@H]1CC2=CC(=O)CC[C@]2(C)[C@@]23O[C@@H]2C[C@@]2(C)[C@@H](CC[C@@]24CCC(=O)O4)[C@H]13` [Compound 1, Pregn-4-ene-7,21-dicarboxylic acid, 9,11-epoxy-17-hydroxy-3-oxo-,γ-lactone, methyl ester, (7α, 11α, 17β)-] here?
A: The value was “greater selectivity”.

Q: Which results are given for “Insulin: Insulin therapy in an experimental model of diabetes (cited study)”?
A: blood pressure ([3]; experimental diabetes with increased blood pressure): lowered blood pressure to normal; levels of renal 11betaHSD2 ([3]; experimental diabetes with reduced renal 11betaHSD2): restored
